Data as given in article PMC5078989, “Targeted inhibition of the COP9 signalosome for treatment of cancer” (Nature Communications, 2016).
pEC50: −log10 of the molar value.

Test system: panel of cancer cell lines
Assay: Cell viability (CellTiter-Glo) dose-response across cancer cell line panel;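 for pEC50: after 72 h compound incubation with CellTiter-Glo ATP readout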
Assay type: cell-based, human
Conditions: for pEC50: Homo sapiens
Excerpt: Next, we explored the effect of CSN5 inhibition on the viability of cancer cells. To obtain a comprehensive picture, we generated dose–response curves with a CSN5 inhibitor across more than 500 cancer cell lines in a previously described standardized setting[47] (Supplementary Data 1).
A standardized CellTiter-Glo Assay (Promega #G7570) based on the quantification of ATP was applied according to the manufacturer's protocol to measure the amount of viable cells in culture. In brief, cells were seeded into 384-well plates at optimal density for each cell line. After 4 h, compounds were added at different concentrations in growth medium and incubated for another 72 h in a humidifying chamber at 37 °C and 5% CO2. […] EC50 values were calculated from the plot of percentage of inhibition versus inhibitor concentration using the nonlinear regression analysis software Origin 7.5SR6 (OriginLab Corp.).

COCc1ccccc1NCc1ccc([C@H]2[C@@H](O)CCCc3cncn32)c(-c2ccccc2Cl)c1 [CSN5i-2, (5S,6S)-5-(2′-chloro-5-(((2-(methoxymethyl)phenyl)amino)methyl)-[1,1′-biphenyl]-2-yl)-6,7,8,9-tetrahydro-5H-imidazo[1,5-a]azepin-6-ol]
pEC50 (SNU-449, SNU-449): 5.67 | pEC50 (SNU-475, SNU-475): 5.58 | pEC50 (SNU-685): 5.68 | pEC50 (SNU-738): 4.85 | pEC50 (SNU-761): 6.55 | pEC50 (SNU-1040): 4.57 | pEC50 (SNU-1079): 6.18 | pEC50 (SNU-C1, SNU-C1): 4.93 | pEC50 (SNU-C2A): 5.29 | pEC50 (SNU-C4, SNU-C4): 5.64 | pEC50 (SNU-C5): 6.29 | pEC50 (SR-786, SR-786): 6.29 | pEC50 (SU-DHL10, SU-DHL-10): 6.19 | pEC50 (SU-DHL-4, SU-DHL-4): 6.15 | pEC50 (SU-DHL-5, SU-DHL-5): 6.79 | pEC50 (SU-DHL-6, SU-DHL-6): 6.58 | pEC50 (SU-DHL-8, SU-DHL-8): 6.33 | pEC50 (SU.86.86, SU.86.86): 4.57 | pEC50 (SUIT-2, SUIT-2): 5.69 | pEC50 (SUM44PE): 4.77 | pEC50 (SUM52PE): 5.39 | pEC50 (SUM149PT): 6.05 | pEC50 (SUM185PE): 4.95 | pEC50 (SUM190PT): 5.53 | pEC50 (SUP-T1, SUP-T1): 6.11 | pEC50 (SW48, SW48): 5.49 | pEC50 (SW480, SW480): 5.74 | pEC50 (SW837, SW837): < 4.52 | pEC50 (SW900, SW 900): 5.84 | pEC50 (SW982, SW982): 5.86 | pEC50 (SW1271, SW 1271): 6.12 | pEC50 (SW1353, SW 1353): 5.86 | pEC50 (SW1573, SW 1573): 5.97 | pEC50 (SW1783, SW 1783): 6.45 | pEC50 (SW-403, SW403): < 4.52 | pEC50 (SW-620, SW620): 5.53 | pEC50 (SYO-1): 6.33 | pEC50 (Sq-1): 5.90 | pEC50 (T3M4, T3M-4): 5.62 | pEC50 (T47D, T-47D): 5.99 | pEC50 (TALL-1, TALL-1): 6.19 | pEC50 (TANOUE): 6.60 | pEC50 (TC-71, TC-71): 5.70 | pEC50 (TCC-PAN2): 6.09 | pEC50 (TE-1, TE-1): 6.12 | pEC50 (TE-6, TE-6): 5.77 | pEC50 (TE-11, TE-11): 5.99 | pEC50 (TE-14): 5.44 | pEC50 (TE-15, TE-15): 7.16 | pEC50 (TF-1, TF-1): 5.59 | pEC50 (THP-1, THP-1): 6.20 | pEC50 (TT2609-C02): 5.75 | pEC50 (TYK-nu): 6.81 | pEC50 (U266B1): 6.31 | pEC50 (U-87 MG): 5.93 | pEC50 (U-118-MG, U-118 MG): 5.89 | pEC50 (U-251, U-251 MG): 5.79 | pEC50 (U-937, U-937): 6.45 | pEC50 (UACC-62, UACC-62): 5.43 | pEC50 (UACC-257, UACC-257): 6.26 | pEC50 (UCH1, UCH-1): 6.38 | pEC50 (UKE1, UKE1): 6.80 | pEC50 (VM-CUB-1, VM-CUB1): 5.17 | pEC50 (VMRC-LCD): 6.02 | pEC50 (VMRC-RCW): 5.66 | pEC50 (WM 266-4, WM-266-4): 5.84 | pEC50 (WM983B, WM-983B): 5.86 | pEC50 (WM-88): 4.70 | pEC50 (WM-115, WM-115): 5.90 | pEC50 (WM-1799, WM1799): 5.76 | pEC50 (WSU-WM): 6.09 | pEC50 (YAPC): 6.24 | AMAX (Hs 294T): -53.6994 | AMAX (Hs 695T): -69.7728 | AMAX (Hs 936.T): -84.1429 | AMAX (HuG1-N): -75.3496 | AMAX (HuH-7): -82.3154 | AMAX (IGR-37): -80.2025 | AMAX (IGROV1): -66.8455 | AMAX (IPC-298): -65.2966 | AMAX (Ishikawa): -71.6276 | AMAX (JHH-4): -91.4689 | AMAX (JHOS-2): -38.1051 | AMAX (JHUEM-2): -86.9649 | AMAX (JL-1): -47.9564 | AMAX (JVM-2): -85.1393 | AMAX (KARPAS-422): -79.6206 | AMAX (KATO III): -58.0161 | AMAX (KBM-7): -95.2333 | AMAX (KE-97): -97.8925 | AMAX (KMRC-1): -54.4009 | AMAX (KP4): -68.6951 | AMAX (KP-1N): -56.9313 | AMAX (KP-3): -58.802 | AMAX (KU-19-19): -51.5044 | AMAX (KYSE-150): -49.8534 | AMAX (KYSE-180): -63.0038 | AMAX (Kasumi3): -93.6402 | AMAX (LUDLU-1): -71.9634 | AMAX (MFE-280): -66.9982 | AMAX (MG-63): -59.1323 | AMAX (MM138): -89.9344 | AMAX (MM415): -88.4479 | AMAX (MM426): -60.9162 | AMAX (MM485): -69.291 | AMAX (MM537): -73.4726 | AMAX (MM576): -52.394 | AMAX (MOLM-16): -89.6899 | AMAX (MOLT-13): -95.3007 | AMAX (MeWo): -53.7976 | AMAX (NB-1): -92.7531 | AMAX (NCI-H82): -95.3022 | AMAX (NCI-H211): -68.3447 | AMAX (NCI-H322): -37.8008 | AMAX (NCI-H441): -64.9424 | AMAX (NCI-H647): -44.0246 | AMAX (NCI-H650): -44.5856 | AMAX (NCI-H810): -67.8352 | AMAX (NCI-H841): -78.3347 | AMAX (NCI-H1155): -84.5649 | AMAX (NCI-H1299): -58.5091 | AMAX (NCI-H1339): -66.5268 | AMAX (NCI-H1373): -65.8548 | AMAX (NCI-H1568): -93.8026 | AMAX (NCI-H2087): -59.3219 | AMAX (NCI-H2122): -79.8003 | AMAX (NCI-H2126): -18.8926 | AMAX (NCI-H2172): -75.6398 | AMAX (NCI-H2452): -33.7782 | AMAX (NCI-N87): -47.3502 | AMAX (ONCO-DG-1): -61.2577 | AMAX (OUMS-23): -82.8646 | AMAX (OV56): -76.0147 | AMAX (P3HR-1): -76.4402 | AMAX (P12-ICHIKAWA): -95.4636 | AMAX (PC-3): -57.0972 | AMAX (Panc 03.27): -70.0008 | AMAX (Panc 10.05): -84.7778 | AMAX (RT-112): -42.1113 | AMAX (SEM): -97.9816 | AMAX (SK-ES-1): -89.0847 | AMAX (WM-88): -55.011 | maximal loss of viability (other, less sensitive cell lines of the panel): 40–60% | Amax (high-concentration effect level) (some cell lines of the panel (cytotoxic)): ≤ −80%
